Measurements taken from ChEMBL document CHEMBL3124777, “Synthesis and biological evaluation of thiazoline derivatives as new antimicrobial and anticancer agents” (Eur J Med Chem, 2014).
Converted amounts (≈) assume the structure as drawn. The source made the active and inactive calls. The calls are words filed in the database; no cut-off is given here.

Key:
C6 [1] = assay: Inhibition of DNA synthesis in rat C6 cells assessed as BrdU incorporation at IC50 after 24 hrs by ELISA; format: functional, cell-based
C6 [2] = assay: Inhibition of DNA synthesis in rat C6 cells assessed as BrdU incorporation after 24 hrs by ELISA; format: functional, cell-based
C6 [3] = assay: Cytotoxicity against rat C6 cells after 24 hrs by MTT assay; format: functional, cell-based; settings: C6, 24 h
NIH3T3 = assay: Cytotoxicity against mouse NIH/3T3 cells after 24 hrs by MTT assay; format: cell-based; settings: NIH3T3, 24 h
C6 [4] = assay: Cytotoxicity against rat C6 cells assessed as cell viability at 200 ug/ml after 24 hrs by MTT assay relative to control; format: functional; settings: C6, 24 h, read-out: Activity
C6 [5] = assay: Cytotoxicity against rat C6 cells assessed as cell viability at 100 ug/ml after 24 hrs by MTT assay relative to control; format: functional; settings: C6, 24 h, read-out: Activity
C6 [6] = assay: Cytotoxicity against rat C6 cells assessed as cell viability at 50 ug/ml after 24 hrs by MTT assay relative to control; format: functional; settings: C6, 24 h, read-out: Activity
C6 [7] = assay: Cytotoxicity against rat C6 cells assessed as cell viability at 25 ug/ml after 24 hrs by MTT assay relative to control; format: functional; settings: C6, 24 h, read-out: Activity
C6 [8] = assay: Cytotoxicity against rat C6 cells assessed as cell viability at 12 ug/ml after 24 hrs by MTT assay relative to control; format: functional; settings: C6, 24 h, read-out: Activity
C6 [9] = assay: Cytotoxicity against rat C6 cells assessed as cell viability at 6 ug/ml after 24 hrs by MTT assay relative to control; format: functional; settings: C6, 24 h, read-out: Activity
Candida albicans = assay: Antimicrobial activity against Candida albicans ATCC 22019 after 18 to 24 hrs by microbroth dilution method; format: functional
Fusarium culmorum = assay: Antimicrobial activity against wild type Fusarium culmorum after 48 to 72 hrs by microbroth dilution method; format: functional
Fusarium verticillioides = assay: Antimicrobial activity against Fusarium moniliforme NRRL 1866 after 48 to 72 hrs by microbroth dilution method; format: functional
Fusarium solani = assay: Antimicrobial activity against Fusarium solani NRRL 13414 after 48 to 72 hrs by microbroth dilution method; format: functional
Aspergillus ochraceus = assay: Antimicrobial activity against Aspergillus ochraceus NRRL 3174 after 48 to 72 hrs by microbroth dilution method; format: functional
Trichoderma harzianum = assay: Antimicrobial activity against Trichoderma harzianum NRRL 20565 after 48 to 72 hrs by microbroth dilution method; format: functional
Penicillium chrysogenum = assay: Antimicrobial activity against Penicillium chrysogenum NRRL 1951 after 48 to 72 hrs by microbroth dilution method; format: functional
Aspergillus parasiticus = assay: Antimicrobial activity against Aspergillus parasiticus NRRL 465 after 48 to 72 hrs by microbroth dilution method; format: functional
Bacillus subtilis = assay: Antimicrobial activity against Bacillus subtilis NRS-744 after 18 to 24 hrs by microbroth dilution method; format: functional
Micrococcus luteus = assay: Antimicrobial activity against Micrococcus luteus NRLL B-4375 after 18 to 24 hrs by microbroth dilution method; format: functional
Pseudomonas aeruginosa = assay: Antimicrobial activity against Pseudomonas aeruginosa […] after 18 to 24 hrs by microbroth dilution method; format: functional
Escherichia coli = assay: Antimicrobial activity against Escherichia coli ATCC 25922 after 18 to 24 hrs by microbroth dilution method; format: functional
Listeria monocytogenes = assay: Antimicrobial activity against Listeria monocytogenes ATCC 7644 after 18 to 24 hrs by microbroth dilution method; format: functional
Staphylococcus aureus = assay: Antimicrobial activity against Staphylococcus aureus NRRL B-767 after 18 to 24 hrs by microbroth dilution method; format: functional

Row | SMILES | IC50 (C6 [3]) [µg/mL] | IC50 (NIH3T3) [µg/mL] | viability at 200 µg/mL (C6 [4]) [%] | viability at 100 µg/mL (C6 [5]) [%] | viability at 50 µg/mL (C6 [6]) [%] | viability at 25 µg/mL (C6 [7]) [%] | viability at 12 µg/mL (C6 [8]) [%] | viability at 6 µg/mL (C6 [9]) [%] | MIC (Candida albicans) [µg/mL] | MIC (Fusarium culmorum) [µg/mL] | MIC (Fusarium verticillioides) [µg/mL] | MIC (Fusarium solani) [µg/mL] | MIC (Aspergillus ochraceus) [µg/mL] | MIC (Trichoderma harzianum) [µg/mL] | MIC (Penicillium chrysogenum) [µg/mL] | MIC (Aspergillus parasiticus) [µg/mL] | MIC (Bacillus subtilis) [µg/mL] | MIC (Micrococcus luteus) [µg/mL] | MIC (Pseudomonas aeruginosa) [µg/mL] | MIC (Escherichia coli) [µg/mL] | also measured
1 | Cc1ccc(-c2cs/c(=N/NC(=O)CSc3nnnn3-c3ccccc3)n2-c2ccccc2)cc1 | 14.7 (≈ 29.4 µM) | > 500 | 22.2 | 28.5 | 29.5 | 38.8 | 55.1 | 66.8 | 250 (≈ 500 µM) | 125 (≈ 250 µM) | 250 (≈ 500 µM) | 250 (≈ 500 µM) | 250 (≈ 500 µM) | 125 (≈ 250 µM) | 250 (≈ 500 µM) | 250 (≈ 500 µM) | 250 (≈ 500 µM) | 250 (≈ 500 µM) | 250 (≈ 500 µM) | 250 (≈ 500 µM) | inhibition (C6 [1]): Active; inhibition (C6 [2]): Dose-dependent effect; MIC (Listeria monocytogenes): 250 µg/mL (≈ 500 µM); MIC (Staphylococcus aureus): 250 µg/mL (≈ 500 µM)
2 | Cc1nnc(SCC(=O)N/N=c2/scc(-c3ccc(F)cc3)n2-c2ccccc2)s1 | 27.3 (≈ 59.7 µM) | 383 (≈ 838 µM) | 26.5 | 34.9 | 37.4 | 50.1 | 73.7 | 74.3 | 250 (≈ 546 µM) | 250 (≈ 546 µM) | 250 (≈ 546 µM) | 250 (≈ 546 µM) | 250 (≈ 546 µM) | 125 (≈ 273 µM) | 250 (≈ 546 µM) | 250 (≈ 546 µM) | 250 (≈ 546 µM) | 250 (≈ 546 µM) | 250 (≈ 546 µM) | 250 (≈ 546 µM) | inhibition (C6 [1]): Active; inhibition (C6 [2]): Dose-dependent effect; MIC (Listeria monocytogenes): 250 µg/mL (≈ 546 µM); MIC (Staphylococcus aureus): 250 µg/mL (≈ 546 µM)
3 | COc1ccc(-c2cs/c(=N/NC(=O)CSc3nnc(C)s3)n2-c2ccccc2)cc1 | 18.7 (≈ 39.8 µM) | 300 (≈ 639 µM) | 22.2 | 25.9 | 31.5 | 42.6 | 53.6 | 57.9 | 250 (≈ 532 µM) | 250 (≈ 532 µM) | 250 (≈ 532 µM) | 250 (≈ 532 µM) | 250 (≈ 532 µM) | 125 (≈ 266 µM) | 250 (≈ 532 µM) | 250 (≈ 532 µM) | 250 (≈ 532 µM) | 250 (≈ 532 µM) | 250 (≈ 532 µM) | 250 (≈ 532 µM) | inhibition (C6 [1]): Active; inhibition (C6 [2]): Dose-dependent effect; MIC (Listeria monocytogenes): 250 µg/mL (≈ 532 µM); MIC (Staphylococcus aureus): 250 µg/mL (≈ 532 µM)
4 | Cc1nnc(SCC(=O)N/N=c2/scc(-c3ccc(Cl)cc3)n2-c2ccccc2)s1 | 28 (≈ 59.1 µM) | 253 (≈ 534 µM) | 29 | 34.1 | 37.9 | 53.3 | 76.6 | 82.8 | 250 (≈ 527 µM) | 250 (≈ 527 µM) | 250 (≈ 527 µM) | 250 (≈ 527 µM) | 250 (≈ 527 µM) | 125 (≈ 264 µM) | 250 (≈ 527 µM) | 250 (≈ 527 µM) | 250 (≈ 527 µM) | 250 (≈ 527 µM) | 250 (≈ 527 µM) | 250 (≈ 527 µM) | inhibition (C6 [1]): Active; inhibition (C6 [2]): Dose-dependent effect; MIC (Listeria monocytogenes): 250 µg/mL (≈ 527 µM); MIC (Staphylococcus aureus): 250 µg/mL (≈ 527 µM)
5 | Cn1nnnc1SCC(=O)N/N=c1/scc(-c2ccc(C#N)cc2)n1-c1ccccc1 | 23.3 (≈ 51.9 µM) | 213 (≈ 476 µM) | 28.6 | 30.9 | 35.6 | 43.9 | 53.9 | 63.5 | 250 (≈ 557 µM) | 250 (≈ 557 µM) | 250 (≈ 557 µM) | 250 (≈ 557 µM) | 250 (≈ 557 µM) | 125 (≈ 279 µM) | 250 (≈ 557 µM) | 250 (≈ 557 µM) | 500 (≈ 1110 µM) | 250 (≈ 557 µM) | 250 (≈ 557 µM) | 250 (≈ 557 µM) | inhibition (C6 [1]): Active; inhibition (C6 [2]): Dose-dependent effect; MIC (Listeria monocytogenes): 250 µg/mL (≈ 557 µM); MIC (Staphylococcus aureus): 250 µg/mL (≈ 557 µM)
6 | O=C(CSc1nnnn1-c1ccccc1)N/N=c1/scc(-c2ccc(F)cc2)n1-c1ccccc1 | 24.3 (≈ 48.3 µM) | 207 (≈ 410 µM) | 30.6 | 35.8 | 43.7 | 49.3 | 60 | 74.9 | 250 (≈ 496 µM) | 125 (≈ 248 µM) | 250 (≈ 496 µM) | 250 (≈ 496 µM) | 250 (≈ 496 µM) | 125 (≈ 248 µM) | 250 (≈ 496 µM) | 250 (≈ 496 µM) | 500 (≈ 993 µM) | 250 (≈ 496 µM) | 250 (≈ 496 µM) | 250 (≈ 496 µM) | inhibition (C6 [1]): Active; inhibition (C6 [2]): Dose-dependent effect; MIC (Listeria monocytogenes): 250 µg/mL (≈ 496 µM); MIC (Staphylococcus aureus): 250 µg/mL (≈ 496 µM)
7 | Cc1ccc(-c2cs/c(=N/NC(=O)CSc3nncn3C)n2-c2ccccc2)cc1 | 56 (≈ 128 µM) | 130 (≈ 298 µM) | 27.8 | 39.6 | 53.8 | 70.7 | 72 | 74.6 | 125 (≈ 286 µM) | 250 (≈ 573 µM) | 250 (≈ 573 µM) | 250 (≈ 573 µM) | 250 (≈ 573 µM) | 125 (≈ 286 µM) | 250 (≈ 573 µM) | 250 (≈ 573 µM) | 250 (≈ 573 µM) | 125 (≈ 286 µM) | 250 (≈ 573 µM) | 125 (≈ 286 µM) | MIC (Listeria monocytogenes): 250 µg/mL (≈ 573 µM); MIC (Staphylococcus aureus): 250 µg/mL (≈ 573 µM)
8 | Cn1nnnc1SCC(=O)N/N=c1/scc(-c2ccccc2)n1-c1ccccc1 | 67.7 (≈ 160 µM) | 173 (≈ 409 µM) | 26.8 | 38.8 | 56.2 | 64.2 | 80.7 | 85.2 | 250 (≈ 590 µM) | 250 (≈ 590 µM) | 250 (≈ 590 µM) | 250 (≈ 590 µM) | 250 (≈ 590 µM) | 125 (≈ 295 µM) | 250 (≈ 590 µM) | 250 (≈ 590 µM) | 250 (≈ 590 µM) | 250 (≈ 590 µM) | 250 (≈ 590 µM) | 250 (≈ 590 µM) | MIC (Listeria monocytogenes): 250 µg/mL (≈ 590 µM); MIC (Staphylococcus aureus): 250 µg/mL (≈ 590 µM)
9 | O=C(CSc1nnnn1-c1ccccc1)N/N=c1/scc(-c2ccc(Br)cc2)n1-c1ccccc1 | 21 (≈ 37.2 µM) | 433 (≈ 768 µM) | 20.4 | 24.3 | 32 | 47.9 | 58.6 | 61.8 | 125 (≈ 221 µM) | 250 (≈ 443 µM) | 250 (≈ 443 µM) | 250 (≈ 443 µM) | 250 (≈ 443 µM) | 125 (≈ 221 µM) | 250 (≈ 443 µM) | 250 (≈ 443 µM) | 250 (≈ 443 µM) | 250 (≈ 443 µM) | 250 (≈ 443 µM) | 250 (≈ 443 µM) | inhibition (C6 [1]): Active; inhibition (C6 [2]): Dose-dependent effect; MIC (Listeria monocytogenes): 250 µg/mL (≈ 443 µM); MIC (Staphylococcus aureus): 250 µg/mL (≈ 443 µM)
10 | Cn1cnnc1SCC(=O)N/N=c1/scc(-c2ccccc2)n1-c1ccccc1 | 68.3 (≈ 162 µM) | 217 (≈ 513 µM) | 35.5 | 38.6 | 62.4 | 77.3 | 79.6 | 90 | 250 (≈ 592 µM) | 250 (≈ 592 µM) | 250 (≈ 592 µM) | 250 (≈ 592 µM) | 250 (≈ 592 µM) | 125 (≈ 296 µM) | 250 (≈ 592 µM) | 250 (≈ 592 µM) | 250 (≈ 592 µM) | 250 (≈ 592 µM) | 250 (≈ 592 µM) | 250 (≈ 592 µM) | MIC (Listeria monocytogenes): 250 µg/mL (≈ 592 µM); MIC (Staphylococcus aureus): 250 µg/mL (≈ 592 µM)
